Experimental data as given in patent US8815219B2, “Sunless tanning with pyranones and furanones” (Conopco, Inc., priority 2009, dated 2014).
Blank lines part the entries; values can stand above or below the compound they belong to.

What was measured:
[1] = Dissolution of Allomaltol in the aqueous composition; format: physicochemical; details: 3 wt.% Allomatol in 5% DHA, 5% glycine, balance water (Example 3 Sample 5)
Description: (§1) Compositions comprising Allomaltol were made by mixing the following: […]

[2] = Visual observation and photographs of tanning rate (color formation) in DHA/glycine compositions; details: Allomaltol 0.5-3 wt.% added to 5% DHA, 5% glycine in water; visual observations and photographs
Description: as §1

[3] = Color development of DHA/glycine compositions by spectrophotometer at 400 nm; details: for enhancement in tanning: Example 6, conclusion from 6 and 27 hour results, DHA 5%, glycine 5%
Method: Color development for the above was also assessed using a spectrophotometer set at a wavelength of 400 nm. […] Compositions comprising KOjic acid or Allomaltol were made by mixing the following ingredients at room temperature. […] Visual observation and photographs were taken after 27 hours of mixing. […] 35%, 38% and 19%, respectively, as determined by assessing the Samples with a Spectrophotometer, wavelength 400 nm. […] Compositions were made by mixing the following ingredients at room temperatures. […] All percents are by weight. The Samples were assessed for color development (with a Spectrophometer, 400 nm wavelength) three (3) days after mixing. […] The following compositions were mixed in a manner similar to the one described in Example 7. The Samples were assessed (with a Spectrophotometer, 400 nm wavelength) fifteen (15) hours after mixing.

[4] = 400 nm, after 20 hours of mixing, 5% DHA, 5% glycine

- Allomatol dissolved [1]: ***= circa 95% Allomatol was dissolved.
SMILES: Cc1cc(=O)c(O)co1 [Allomaltol, 3-hydroxy-6-methyl, 4-pyrone]
- tanning rate (color formation) [2]: enhanced
- color development at 3% Allomaltol greater than at 0.5% Allomaltol [3, 4]: 45%
- color development at 3% Allomaltol greater than at 1% Allomaltol [3, 4]: 40%
- color development at 3% Allomaltol greater than at 2% Allomaltol [3, 4]: 20%
- color development at 3% Allomaltol greater than composition deplete of adjuvant [3, 4]: 60%
- enhancement in tanning [3]: enhancement in tanning

SMILES: O=c1cc(CO)occ1O [Kojic acid]
- enhancement in tanning [3]: enhancement in tanning

- color body generation with glycine and no DHA ([3]; Example 8, 0.5% adjuvant, 5% glycine, fifteen hours after mixing): No color body generation
SMILES: Cc1cc(=O)c(NCC(=O)O)co1 [adjuvant]

SMILES: O=c1cc(CCl)occ1O [chlorinated adjuvant]
- color body generation with glycine and no DHA ([3]; Example 7, 0.25% chlorinated adjuvant, 5% glycine, three days after mixing): No color body generation
